Like-named read-outs stand apart in the source and are kept apart here.
Molecular target: T1, human S1P3 receptor (Homo sapiens, UniProt Q99500)
T1 construct: expressed in transfected cells
Assay: FLIPR calcium (Fluo-4) assay for activation or block of activation of human S1P3 receptor in T24 cells
Assay type: cell-based
Experimental: The compounds of the invention are assessed for their ability to activate or block activation of the human S1P3 receptor in T24 cells stably expressing the human S1P3 receptor using the method described in paragraph [0067] of United States Patent Application Publication No. 20070232682, which published on Oct. 4, 2007, which is hereby incorporated by reference in its entirety.
Ten thousands cells/well are plated into 384-well poly-D-lysine coated plates one day prior to use. The growth media for the S1P3 receptor expressing cell line is McCoy's 5A medium supplemented with 10% charcoal-treated fetal bovine serum (FBS), 1% antibiotic-antimycotic and 400 μg/ml geneticin. On the day of the experiment, the cells are washed twice with Hank's Balanced Salt Solution supplemented with 20 mM HEPES (HBSS/Hepes buffer). The cells are then dye loaded with 2 μM Fluo-4 diluted in the HBSS/Hepes buffer with 1.25 mM Probenecid and incubated at 37° C. for 40 minutes. Extracellular dye is removed by washing the cell plates four times prior to placing the plates in the FLIPR (Fluorometric Imaging Plate Reader, Molecular Devices). Ligands are diluted in HBSS/Hepes buffer and prepared in 384-well microplates. The positive control, Sphingosine-1-phosphate (S1P), is diluted in HBSS/Hepes buffer with 4 mg/ml fatty acid free bovine serum albumin. The FLIPR transfers 12.5 μl from the ligand microplate to the cell plate and takes fluorescent measurements for 75 seconds, taking readings every second, and then for 2.5 minutes, taking readings every 10 seconds. Compounds are tested over the concentration range of 0.61 nM to 10,000 nM. Data for calcium ion (Ca^+2) responses are obtained in arbitrary fluorescence units and not translated into Ca^+2 concentrations. IC50 values (nM) are determined through a […] analysis using the Levenburg Marquardt algorithm.

[1] = T24 cells stably expressing the human S1P3 receptor, tested over 0.61 nM to 10,000 nM
[2] = T24 cells stably expressing the human S1P3 receptor, tested over 0.61 nM to 10,000 nM, read-out: S1P3 IC50

T1 sequence (Q99500 whole entry): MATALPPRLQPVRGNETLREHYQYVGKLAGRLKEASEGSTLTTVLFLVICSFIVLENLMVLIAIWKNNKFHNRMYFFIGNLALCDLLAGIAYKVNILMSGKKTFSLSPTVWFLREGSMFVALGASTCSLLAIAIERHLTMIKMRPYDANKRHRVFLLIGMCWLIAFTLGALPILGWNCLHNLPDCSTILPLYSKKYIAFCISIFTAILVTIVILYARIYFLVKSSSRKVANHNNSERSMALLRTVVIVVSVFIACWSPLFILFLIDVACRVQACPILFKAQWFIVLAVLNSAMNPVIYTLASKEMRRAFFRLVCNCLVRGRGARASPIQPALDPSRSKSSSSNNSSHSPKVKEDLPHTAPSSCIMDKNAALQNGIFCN

| IC50 [2] [µM] | SMILES | IC50 [µM] | S1P3 % Inhibition [1] [%] |
| --- | --- | --- | --- |
|  | CSC(=O)Nc1cc2c3c(c1)[C@](C)(c1ccccc1)CCN3CC[C@@]2(C)c1ccccc1 [Compound 583, S-methyl (1S,7S)-1,7-dimethyl-1,7-diphenyl-1,2,3,5,6,7-hexahydropyrido[3,2,1-ij]quinolin-9-ylcarbamothioate] | 0.01 | 98 |
|  | CCCSC(=O)Nc1cc2c3c(c1)[C@@](C)(c1ccccc1)CCN3CC[C@@]2(C)c1ccccc1 [Compound 584, S-propyl (1R,7S)-1,7-dimethyl-1,7-diphenyl-1,2,3,5,6,7-hexahydropyrido[3,2,1-ij]quinolin-9-ylcarbamothioate] | 0.016 | 98 |
|  | CCCSC(=O)Nc1cc2c3c(c1)[C@](C)(c1ccccc1)CCN3CC[C@@]2(C)c1ccccc1 [Compound 585, S-propyl (1S,7S)-1,7-dimethyl-1,7-diphenyl-1,2,3,5,6,7-hexahydropyrido[3,2,1-ij]quinolin-9-ylcarbamothioate] | 0.005 | 98 |
|  | CSC(=O)Nc1cc2c3c(c1)[C@](C)(c1ccc(F)cc1)CCN3CC[C@@]2(C)c1ccc(F)cc1 [Compound 671, S-methyl (1S,7S)-1,7-bis(4-fluorophenyl)-1,7-dimethyl-1,2,3,5,6,7-hexahydropyrido[3,2,1-ij]quinolin-9-ylcarbamothioate] | 0.025 | 97 |
|  | CCCCOC(=O)Nc1cc2c3c(c1)[C@](C)(c1ccc(F)cc1)CCN3CC[C@@]2(C)c1ccc(F)cc1 [Compound 672, butyl (1S,7S)-1,7-bis(4-fluorophenyl)-1,7-dimethyl-1,2,3,5,6,7-hexahydropyrido[3,2,1-ij]quinolin-9-ylcarbamate] | 0.086 | 89 |
|  | CCCSC(=O)Nc1cc2c3c(c1)[C@](C)(c1ccc(F)cc1)CCN3CC[C@@]2(C)c1ccc(F)cc1 [Compound 673, S-propyl (1S,7S)-1,7-bis(4-fluorophenyl)-1,7-dimethyl-1,2,3,5,6,7-hexahydropyrido[3,2,1-ij]quinolin-9-ylcarbamothioate] | 0.062 | 97 |
|  | COC(=O)Nc1cc2c3c(c1)[C@](C)(c1ccc(F)cc1)CCN3CC[C@@]2(C)c1ccc(F)cc1 [Compound 674, methyl (1S,7S)-1,7-bis(4-fluorophenyl)-1,7-dimethyl-1,2,3,5,6,7-hexahydropyrido[3,2,1-ij]quinolin-9-ylcarbamate] | 0.046 | 96 |
| 0.004 | CSC(=O)Nc1cc2c3c(c1)C(c1ccccc1)CCN3CCC2c1ccccc1 (stereo not drawn) [Compound 699] |  | 100 |
| 0.007 | CCCSC(=O)Nc1cc2c3c(c1)C(c1ccccc1)CCN3CCC2c1ccccc1 (stereo not drawn) [Compound 700] |  | 100 |
|  | O=C(NCCCl)Nc1cc2c3c(c1)C(c1ccccc1)CCN3CCC2c1ccccc1 (stereo not drawn) [Compound 769, 1-(2-chloroethyl)-3-(1,7-diphenyl-1,2,3,5,6,7-hexahydropyrido[3,2,1-ij]quinolin-9-yl)urea] |  | 100 |
|  | C=CCNC(=O)Nc1cc2c3c(c1)C(c1ccccc1)CCN3CCC2c1ccccc1 (stereo not drawn) [Compound 773, 1-allyl-3-(1,7-diphenyl-1,2,3,5,6,7-hexahydropyrido[3,2,1-ij]quinolin-9-yl)urea] |  | 100 |
| 0.619 | CNC(=O)c1cc2c3c(c1)C(c1ccccc1)CCN3CCC2c1ccccc1 (stereo not drawn) [Compound 775, N-methyl-1,7-diphenyl-1,2,3,5,6,7-hexahydropyrido[3,2,1-ij]quinoline-9-carboxamide] |  | 100 |
|  | COC(=O)Nc1cc2c3c(c1)C(c1cccc(F)c1)CCN3CCC2c1cccc(F)c1 (stereo not drawn) [Compound 779, Methyl 1,7-bis(3-fluorophenyl)-1,2,3,5,6,7-hexahydropyrido[3,2,1-ij]quinolin-9-ylcarbamate] |  | 101 |
|  | COC(=O)Nc1cc2c3c(c1)[C@](C)(c1ccccc1)CCN3CC[C@@]2(C)c1ccccc1 [Compound 829, methyl (1S,7S)-1,7-dimethyl-1,7-diphenyl-1,2,3,5,6,7-hexahydropyrido[3,2,1-ij]quinolin-9-ylcarbamate] | 0.007 | 97 |
|  | CCOC(=O)Nc1cc2c3c(c1)[C@](C)(c1ccccc1)CCN3CC[C@@]2(C)c1ccccc1 [Compound 941, Ethyl (1S,7S)-1,7-dimethyl-1,7-diphenyl-1,2,3,5,6,7-hexahydropyrido[3,2,1-ij]quinolin-9-ylcarbamate] | 0.013 | 100 |
|  | CCCOC(=O)Nc1cc2c3c(c1)[C@](C)(c1ccccc1)CCN3CC[C@@]2(C)c1ccccc1 [Compound 942, Propyl (1S,7S)-1,7-dimethyl-1,7-diphenyl-1,2,3,5,6,7-hexahydropyrido[3,2,1-ij]quinolin-9-ylcarbamate] | 0.072 | 100 |
|  | CCCCOC(=O)Nc1cc2c3c(c1)[C@](C)(c1ccccc1)CCN3CC[C@@]2(C)c1ccccc1 [Compound 943, Butyl (1S,7S)-1,7-dimethyl-1,7-diphenyl-1,2,3,5,6,7-hexahydropyrido[3,2,1-ij]quinolin-9-ylcarbamate] | 0.075 | 100 |
|  | C[C@@]1(c2ccccc2)CCN2CC[C@@](C)(c3ccccc3)c3cc(NC(=O)OCCF)cc1c32 [Compound 944, 2-fluoroethyl (1S,7S)-1,7-dimethyl-1,7-diphenyl-1,2,3,5,6,7-hexahydropyrido[3,2,1-ij]quinolin-9-ylcarbamate] | 0.027 | 100 |
|  | C[C@@]1(c2ccccc2)CCN2CC[C@@](C)(c3ccccc3)c3cc(NC(=O)OCCCCl)cc1c32 [Compound 945, 3-chloropropyl (1S,7S)-1,7-dimethyl-1,7-diphenyl-1,2,3,5,6,7-hexahydropyrido[3,2,1-ij]quinolin-9-ylcarbamate] | 0.068 | 100 |
|  | O=C(Nc1cc2c3c(c1)C(c1ccccc1)CCN3CCC2c1ccccc1)N1CCOCC1 (stereo not drawn) [Compound 983, N-(1,7-diphenyl-1,2,3,5,6,7-hexahydropyrido[3,2,1-ij]quinolin-9-yl)morpholine-4-carboxamide] |  | 100 |

Source: patent US8431702B2, “Therapeutically useful substituted hydropyrido [3,2,1-ij] quinoline compounds” (Allergan, Inc., priority 2008, dated 2013)
